Values quoted from earlier work in patent US20210299070A1, “METHODS OF TREATING CREATINE T[…]” (Jnana Therapeutics, Inc., priority 2018, published 2021).

Key:
[1] = patients with CID (creatine transporter deficiency); oral supplements
[2] = patients with GAMT or AGAT deficiency; oral supplements

## CN(CC(=O)O)C(=N)N.O [creatine monohydrate]
[1]
  response to treatment: did not respond to treatment
[2]
  clinical symptoms: clinical symptoms improved
